Values joined by “and” are separate entries in the source; they are usually repeats but may differ in a detail not shown here. Equal entries are not always repeated.
Legend:
[1] = test system: remnant kidney rats (5/6 nephrectomy); assay: Micropuncture (glomerular hemodynamics) in remnant kidney rats; assay type: in vivo, Sprague-Dawley rats; parameters: SNGFR lower than RK control group / glomerular plasma flow lower than RK control group / Kf lower than RK control group / afferent resistance higher compared to RK control / efferent resistance higher compared to RK control: concentration or dose not given beside the values
Procedure: Experimental Design: All animal procedures were approved by the Animal Care Committee. Male 300-350 g Sprague-Dawley rats were used in all experiments.
(§1) Hyperuricemia in remnant kidney rats on normal sodium diet: Under light anesthesia with ether, 5/6 nephrectomy was performed by removal of the right kidney and selective ligation of 2-3 branches of left renal artery. To induce hyperuricemia rats were given OA (750 mg/kg) by gastric gavage starting the day after the renal ablation. To prevent hyperuricemia AP was administered in the drinking water (150 mg/L). The following groups were studied: 5/6 Nx (n=10); 5/6 Nx+OA (n=12) and 5/6 Nx+OA+AP (n=13). Systolic blood pressure, proteinuria and serum uric acid were measured at baseline and after 25-28 days of follow-up. Micropuncture studies were performed at 4 weeks.
Micropuncture: Animals were anesthetized with pentobarbital sodium (30 mg/kg ip) and placed on a thermoregulated table to maintain body temperature at 37° C. Trachea, jugular veins, femoral arteries, and the left ureter were catheterized with polyethylene tubing (PE-240, PE-50, and PE-10). The left kidney was exposed, placed in a Lucite holder, sealed with agar, and covered with Ringer's solution. Mean arterial pressure (MAP) was monitored with a pressure transducer (Model p23 db; Gould, San Juan, PR) and recorded on a polygraph (Grass Instruments, Quincy, Mass., USA). Blood samples were taken periodically and replaced with blood from a donor rat. Rats were maintained under euvolemic conditions by infusion of 10 ml/kg of body weight of isotonic rat plasma during surgery, followed by an infusion of 25% polyfructosan, at 2.2 ml/h (Inutest, Laevosan-Gesellschaft, Linz, Austria). After 60 min, five to six 3-min collection samples of proximal tubular fluid were obtained to determine flow rate and polyfructosan concentration. Intratubular pressure under free-flow and stop-flow conditions and peritubular capillary pressure were measured in other proximal tubules with a servo-null device (Servo Nulling Pressure System; Instrumentation for Physiology and Medicine, San Diego, Calif., USA). Polyfructosan was measured in plasma samples. Glomerular colloid osmotic pressure was estimated in protein from blood of the femoral artery (Ca) and surface efferent arterioles (Ce). Polyfructosan concentrations were determined by the technique of Davidson and Sackner (Davidson W D, Sackner Mass.: Simplification of the Antrhone Method for the Determination of Inulin in Clearance Studies. J. Lab Clin. Med. 62:351-356, 1963). The volume of fluid collected from individual proximal tubules was estimated from the length of the fluid column in a constant bore capillary tube of known internal diameter. Concentration of tubular polyfructosan was measured by the method of Vurek and Pegram (Vurek G G, Pegram S E: Fluorometric method for the determination of nanogram quantities of inulin. Ann. Biochem 16:409-419, 1966). Protein concentration in afferent and efferent samples was determined according to the method of Viets et al. (Viets J W, Deen W M, Troy J L, Brenner B M: Determination of serum protein concentration in nanoliter blood samples using fluorescamine or 9-phthalaldehyde. Anal. Biochem 88:513-521, 1978). MAP, GFR, single-nephron GFR (SNGFR), glomerular capillary hydrostatic pressure (Pgc), single-nephron plasma flow (QA), afferent (RA) and efferent (RE) resistances, and Kf, were calculated according to equations given elsewhere (Baylis C, Deen W M, Myers B D, Brenner B M: Effects of some vasodilator drugs on transcapillary fluid exchange in renal cortex. Am. J. Physiol 230:1148-1158, 1976).
Statistical analysis. Values are expressed as mean±standard error (SE). Differences between groups were evaluated by ANOVA with appropriate correction for multiple comparisons (Bonferroni). The relation between variables was assessed by correlation analysis.

[2] = test system: remnant kidney rats (5/6 nephrectomy); assay: Renal histology in remnant kidney rats; assay type: in vivo, Sprague-Dawley rats; conditions: mean±SE
Procedure: as §1
Renal Histology: After the micropuncture study kidneys and remnant kidneys were washed by perfusion with PBS and then fixed with 4% paraformaldehyde. Renal biopsies were embedded in paraffin. Four μm sections of fixed tissue were stained with periodic acid Schiff (PAS) reagent. Arteriolar morphology was assessed by indirect peroxidase immunostaining for alpha-smooth muscle actin (DAIO Corp. Carpinteria, Calif., USA). In addition in remnant kidney rats glomerulosclerosis and fibrosis was assessed with Masson's trichrome stain and tubulointerstitial lymphocytes were assessed by indirect immunoperoxidase immunostaining for anti-CD-5.
Quantification of morphology: Quantifications were performed blinded. Arteriolopathy of afferent arterioles was evaluated as previously described (Sanchez-Lozada L G, Tapia E, Avila-Casado C, Soto V, Franco M, Santamaria J, Nakagawa T, Rodriguez-Iturbe B, Johnson R J, Herrera-Acosta J: Mild hyperuricemia induces glomerular hypertension in normal rats. Am. J. Physiol Renal Physiol 283:F1105-F1110, 2002). In brief, only vessels adjacent to glomeruli were selected. For each arteriole, the outline of the vessel and its internal lumen (excluding the endothelium) was generated using computer analysis to calculate the total medial area (outline-inline), in 10 arterioles per biopsy. The media/lumen ratio was calculated by the outline/inline relationship.
Glomerulosclerosis was evaluated in Masson's trichrome stained sections. The degree of sclerosis was scored as follows: in each biopsy the numbers of glomeruli with segmental, mesangial and global sclerosis as well as normal glomerular tufts were assessed. The resulting index in each animal was expressed as the percent of sclerosed glomeruli.
Tubulointerstitial fibrosis analysis was performed by a pathologist unaware of the origin of each kidney section. Evaluation was performed using slides stained with Masson's trichrome. Five noncrossed fields ([…], enlarged ×40) per biopsy were analyzed, using light microscopy (Olympus B-51. Olympus American, Melville, N.Y.) and captured with a digital video camera (CoolSnap Pro, Media Cybernetics Silver Spring, Md.). Each picture was processed on a computer and analyzed using Image-Pro and Photoshop 7 (Adobe Systems, SanJose, Calif.). Using the capabilities of color recognition by this software, a blue color was selected for positive areas. After selection, these areas were quantified (pixel unit) using the histogram function of the software. For each field, the number of positive areas was expressed as a fraction of the tubulointerstitial area (positive areas divided by the overall field area). Finally, for each biopsy, the mean fractional amount of positive areas was obtained by averaging the values obtained from 5 fields examined. […]

[3] = micropuncture at 4 weeks, mean±SE

SMILES | Kf lower than RK control group [1] [%] | SNGFR lower than RK control group [1] [%] | afferent resistance higher compared to RK control [1] [%] | efferent resistance higher compared to RK control [1] [%] | glomerular plasma flow lower than RK control group [1] [%] | GFR [1, 3] [mL/min] | KF (ultrafiltration coefficient) [1, 3] | MAP (mean arterial pressure) [1, 3] [mmHg] | PGC (glomerular capillary pressure) [1, 3] | QA (glomerular plasma flow) [1, 3] | RA (afferent resistance) [1, 3] | RE (efferent resistance) [1, 3] | SNGFR (single-nephron GFR) [1, 3] | Glomerulosclerosis ([2]; Masson's trichrome) [%] | TI Fibrosis ([2]; Masson's trichrome) [arbitrary units] | TI CD5 + (tubulointerstitial infiltration of CD5 positive cells) ([2]; immunoperoxidase) | AA M/L (afferent arteriole media to lumen ratio) [2] | AA M/L (afferent arteriole media to lumen ratio) ([2]; listed as Oxonic acid) | PGC, in words ([1]; AP with oxonic acid, in the presence of systemic hypertension)
O=C(O)c1nc(=O)[nH]c(=O)[nH]1 [OA, oxonic acid] | 50 | 40 | 120 | 80 | 40 | 0.4 ± 0.1 | 0.02 nl/s/mmHg and 0.024 ± 0.003 nl/s/mmHg | 184 ± 6 | 62 mmHg and 62 ± 1 mmHg | 147 nL/min and 146.5 ± 20.4 nL/min | 4.6 dyn/s/cm^−5 and 4.55 ± 0.66 dyn/s/cm^−5 | 1.8 dyn/s/cm^−5 and 1.83 ± 022 dyn/s/cm^−5 | 40.6 nL/min and 40.7 ± 6.0 nL/min | 0.33 ± 0.07 | 780.2 ± 55.0 | 26.1 cells/mm^2 and 26.1 ± 2.99 cells/mm^2 | 6.4 ± 0.37 | 6.4 | 
Oc1ncnc2[nH]ncc12 [AP, allopurinol] |  |  |  |  |  |  |  |  |  |  |  |  | 53 nL/min |  |  |  | 1.8 |  | normal and significantly lower than RK hyperuricemic rats
